We go through 5 molecules from US20240150396A1 (The Texas A&M University System, priority 2021, published 2024).

In one series the target is human cathepsin L (Homo sapiens (Human), UniProt P07711). Description: Human cathepsin L inhibition, Z-FR-AMC assay. The format is biochemical. The note with it: for Ki: pH 5.5, 25° C. In outline: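 Recombinant human enzymes were assayed at 25°C in sodium acetate pH 5.5 with 1 mM CHAPS, 1 mM EDTA, 5 mM DTT and 10% DMSO final, using the fluorogenic substrate Z-FR-AMC. AMC release (ex 360/em 460 nm) was followed over 30–60 min and converted to rates (μM/s) via an AMC standard curve.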
Sequence of human cathepsin L (P07711 114-333): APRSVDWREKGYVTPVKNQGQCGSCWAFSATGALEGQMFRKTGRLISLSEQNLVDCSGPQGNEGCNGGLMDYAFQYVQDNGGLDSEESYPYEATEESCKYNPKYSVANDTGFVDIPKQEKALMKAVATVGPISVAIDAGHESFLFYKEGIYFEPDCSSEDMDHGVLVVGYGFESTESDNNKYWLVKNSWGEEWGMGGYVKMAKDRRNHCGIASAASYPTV

A further series concerns the target human cathepsin S (Homo sapiens (Human), UniProt P25774). Description: Human cathepsin S inhibition. Format: biochemical. The note with it: pH 5.5, 25° C., 10% DMSO. The procedure:
Cruzain inhibitors were added at seven concentrations and one fixed concentration of Cbz-Phe-Arg-AMC, and time courses of AMC formation were analyzed as with cruzain.

Series [1] relates to T. cruzi (Ca-I/72) in C2C12 murine cardiomyoblasts. Description: T. cruzi-infected murine cardiomyoblasts (C2C12). The note with it: for EC50: read-out: EC50 T. cruzi-infected cardiomyoblasts. Format: cell-based, Trypanosoma cruzi. In outline: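 C2C12 mouse cardiomyoblasts infected with T. cruzi Ca-I/72 (10^3 and 10^4 parasites) and exposed to 3-fold serial dilutions of inhibitor from a 10 μM maximum, 48 h at 37° C. After PFA fixation and DAPI staining, automated imaging quantified parasites and host cells, giving EC50 and host CC50.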

The next series concerns human dermal fibroblasts. Description: Human cell toxicity, resazurin viability. Format: cell-based. In outline:
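Primary human dermal fibroblasts, 2400 cells/well, exposed in duplicate to inhibitors at final 0.001-0.1 mM in 1% DMSO (1% DMSO control) for 48 h at 37 °C. Resazurin then added and viability read by fluorescence (544/590 nm) after further 24 h.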
(Resazurin is reduced to fluorescent resorufin, in cell work by metabolically active cells.)

The nature of series [2]: Host cell cytotoxicity in the T. cruzi infection model. The format is cell-based, mouse. Particulars: mouse. In short, it runs like this: (§1)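 C2C12 murine cardiomyoblasts infected with T. cruzi were incubated with compound 48 h at 37 °C, fixed in 2% PFA and stained with 5 μg/ml DAPI. Automated microscopy imaging quantified host cells and parasites separately; host cytotoxicity derived as CC50.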

In series [3] the test system is T. cruzi epimastigotes (strain Y). Put plainly: Growth of axenic cultures of T. cruzi epimastigotes.
The target of another series is SARS-CoV-2 3CL protease (Severe acute respiratory syndrome coronavirus 2 (2019-nCoV) (SARS-CoV-2), UniProt P0DTD1). Description: biochemical. Format: biochemical. Particulars: pH 7.5; for Ki: read-out: Ki* 3CLpro.
Series [4] relates to T. b. brucei procyclic forms. Put plainly: Growth of axenic cultures of T. b. brucei procyclic forms (PCFs). The note with it: axenic culture; read-out: EC50 T. b. brucei PCF. The format is cell-based, Trypanosoma brucei brucei.
Series [5] relates to SARS-CoV-2 in Vero E6 cells. Description: Anti-CoV-2 activity in Vero E6 cells. The format is cell-based.
Series [6] deals with T. b. brucei bloodstream forms. Description: Growth of axenic cultures of T. b. brucei bloodstream forms (BSFs).
In series [7] the test system is C2C12 mouse cardiomyoblast cell line. Description: Host cell cytotoxicity in the T. cruzi infection model. The format is cell-based. In outline: as §1
Setting [8] is: 10% DMSO, read-out: Ki* Human Cathepsin L.
[9] abbreviates: Trypanosoma cruzi, C2C12, C2C12 murine cardiomyoblasts.
Setting [10] is: read-out: T. cruzi axenic culture EC50, epimastigotes.
[11] abbreviates: read-out: EC50 T. b. brucei BSF, axenic culture.

Structures are written as SMILES. Where “and” joins values, the source holds several entries; their conditions need not be identical. Equal values may be shown once. Read-outs that look alike come from different tables or passages of the source.

Sequence of human cathepsin S (P25774 115-331): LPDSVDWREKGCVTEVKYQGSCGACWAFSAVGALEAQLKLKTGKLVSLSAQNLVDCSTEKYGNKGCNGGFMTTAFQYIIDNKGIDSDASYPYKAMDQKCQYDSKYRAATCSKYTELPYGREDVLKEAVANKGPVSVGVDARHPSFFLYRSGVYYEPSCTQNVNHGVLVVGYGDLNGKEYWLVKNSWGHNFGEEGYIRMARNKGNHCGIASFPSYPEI

In general, Ki refers to a dissociation constant, usually derived from enzyme kinetics or from competition with a known ligand. Usually EC50 stands for the concentration giving half of the maximal effect. A word on the CC50: it is the concentration that lowers cell viability or growth by half. `O=C(N[C@@H](Cc1ccccc1)C(=O)N[C@H](/C=C/c1ccccn1)Cc1ccccc1)OCc1ccccc1` [Compound 11, Benzyl ((S)-1-Oxo-3-phenyl-1-(((S,E)-1-phenyl-4-(pyridin-2-yl)-but-3-en-2-yl)amino)propan-2-yl)carbamate]: the inhibition constant (Ki) stood at 4.3 ± 0.5 µM on human cathepsin L (setting [8]) and 1.8 ± 0.3 µM on human cathepsin S. The concentration for a half-maximal effect (EC50) in series [1] (C2C12 murine cardiomyoblasts) is 5 to 10 µM; in series [1] (setting [9]), 5 to 8 µM; in [3] (Trypanosoma cruzi, read-out: T. cruzi axenic culture EC50, epimastigotes) it was above 20 µM. In addition, in the series on human dermal fibroblasts (human dermal fibroblasts, read-out: Human Cell Cytotoxicity CC50), the half-maximal cytotoxic concentration (CC50) was above 100 µM. Also, in [2] (host cardiomyoblasts, read-out: C2C12 Cytotoxicity CC50), the half-maximal cytotoxic concentration (CC50) at 48 h was above 10 µM. Moreover, the “T. cruzi axenic culture EC50” value in series [3] (epimastigotes) is on record as “poorly effective”.

Turning to `CN1CCN(C(=O)NC(Cc2ccccc2)C(=O)NC2Cc3ccccc3OC2O)CC1` (centres unmarked) [Compound 36], the inhibitory constant (Ki) on human cathepsin L (read-out: Ki* hCatL) was 0.02 ± 0.0009 µM; at SARS-CoV-2 3CL protease, above 10 µM. In addition, the EC50 in series [1] (C2C12 murine cardiomyoblasts) was 29 µM and ~30 µM; in [4], 4 µM; in [5], 7.5 µM; in [3] (setting [10]), 0.54 µM; in [6] (setting [11]), 0.6 µM.

Take `C[n+]1ccccc1/C=C/[C@H](CCc1ccccc1)NC(=O)[C@H](Cc1ccccc1)NC(=O)OCc1ccccc1` [Compound 15, 2-((S,E)-3-((S)-2-(((Benzyloxy)carbonyl)amino)-3-phenylpropanamido)-5-phenylpent-1-en-1-yl)-1-methylpyridin-1-ium]: the Ki on human cathepsin L (setting [8]) came to 0.88 ± 0.06 µM; on human cathepsin S it was 0.32 ± 0.04 µM. Moreover, the concentration giving a half-maximal response (EC50) was 5.4 ± 0.9 µM in series [1] (C2C12 murine cardiomyoblasts); 5 to 15 µM and 5.9 µM in series [4]; 2 to 20 µM and 2.1 µM in [3] (setting [10]); 2.8 ± 0.1 µM in series [6] (setting [11]). Further, the CC50 in the series with human dermal fibroblasts was above 100 µM; in [7], above 10 µM.

With `C[n+]1ccccc1/C=C/[C@H](Cc1ccccc1)NC(=O)[C@H](Cc1ccccc1)NC(=O)OCc1ccccc1.[I-]` [Compound 12, 2-((S,E)-3-((S)-2-(((Benzyloxy)carbonyl)amino)-3-phenylpropanamido)-4-phenylbut-1-en-1-yl)-1-methylpyridin-1-ium Iodide], the inhibitory constant (Ki) at human cathepsin L (setting [8]) was 0.7 ± 0.04 µM; on human cathepsin S, 0.87 ± 0.07 µM. The EC50 is 9.9 ± 0.5 µM in series [1] (C2C12 murine cardiomyoblasts); 5 to 8 µM in series [1] (setting [9]); 6.6 ± 0.6 µM in series [6] (Trypanosoma brucei, read-out: EC50 T. b. brucei BSF, axenic culture). In addition, the “Selectivity Index CC50/EC50” value in [1] (CC50 human dermal fibroblasts / EC50 infected cardiomyoblasts) is recorded as above 10. The same molecule yielded a CC50 with human dermal fibroblasts (human, 48 h) above 100 µM. Besides, the CC50 at 48 h in series [2] was above 10 µM.

In the case of `O=C(N[C@@H](Cc1ccccc1)C(=O)N[C@H]1Cc2ccccc2OC1O)OCc1ccccc1` (some centres unmarked) [Compound 30], the “selectivity for cruzain vs human cathepsin L and S” value at human cathepsin L is on record as “more than 10 fold”. Further, the Ki was 0.028 ± 0.0009 µM on human cathepsin L (read-out: Ki* hCatL) and above 10 µM at SARS-CoV-2 3CL protease. At SARS-CoV-2 3CL protease, the “Ki* 3CLpro” value was “not an inhibitor of 3CL protease”. The concentration giving a half-maximal response (EC50) in series [1] (C2C12 murine cardiomyoblasts) is 5 to 8 µM and 3 µM and 3 to 5.7 µM; in series [4], 17 µM; in series [5], 5 µM and 2.5 to 7.5 µM; in series [3] (setting [10]) it was 2 to 20 µM; in series [6] (setting [11]), 6.8 ± 1.1 µM. For the same molecule, the CC50 in series [7] is above 10 µM.
